# Results reported in patent US20150209315A1 (Cumberland Pharmaceuticals, priority 2009, published 2015).
# Key:
# [1] = tested on: post-operative adult patients; test: Example 1: time to GI motility, ambulation, liquid/solid intake, length of hospital stay; assay type: in vivo, human; details: for Time to GI motility: value + SD
# [2] = tested on: patients with fever and severe sepsis; details: cited from earlier work
# [3] = tested on: post-operative adult patients; test: Example 2: patient self-assessment of pain, VAS with movement; assay type: in vivo, human; details: 800 mg
# [4] = tested on: fever in hospitalized patients; test: Clinical trials of intravenous ibuprofen for fever; assay type: in vivo, human
# [5] = tested on: patients undergoing orthopedic surgical procedures; test: Example 3: morphine use post-surgery through study hour 28; assay type: in vivo, human; details: for Morphine Requirement, LS Means Difference (95% CI): 800 mg vs placebo; for Morphine Requirement, LS Means Difference (95% CI) / Morphine Requirement, LS Means (SE) / Morphine Requirement, Mean (SD) / Morphine Requirement, Median: Post-Op-28 hours; for decrease in the mean morphine used in the postoperative period / Morphine Requirement, LS Means (SE) / Morphine Requirement, Mean (SD) / Morphine Requirement, Median: 800 mg
# [6] = tested on: post-operative adult patients; test: Example 2: treatment failures; assay type: in vivo, human; details: 800 mg; ITT
# Experimental: Eligible patients were randomized to one of the two treatment groups. All patients were able (but were not required) to receive morphine until approximately 45 minutes before the end of the surgical procedure. After that time, only fentanyl was allowed until the end of the operation. The first dose of ibuprofen was administered at approximately the initiation of skin closure. […] Other than ibuprofen or placebo, only morphine was administered for pain. […] Additional morphine could be administered at the discretion of the treating physician if adequate pain control had still not been achieved. Patients given non-morphine analgesics were classified as treatment failures. Treatment failures were not replaced. A treatment failure was defined as a patient that required narcotic pain medication, other than morphine, or non-narcotic medications including the use of another NSAID through the treatment period. If other narcotics (other than morphine) or NSAIDS were started, CTM was discontinued.
# [7] = tested on: patients undergoing orthopedic surgical procedures; test: Example 3: adverse events; assay type: in vivo, human
# Experimental: Patients were evaluated and compared for morphine requirements between the active doses and placebo using analysis of variance and covariance procedures at an overall alpha level of 0.05. Secondary efficacy parameters were also evaluated and compared among the treatment groups using appropriate statistical methods described in the statistical analysis section of the protocol. For the adverse events, instead of using an unadjusted Chi-square test and a Cochran-Mantel-Haenszel test adjusted for center to compare treatment groups with respect to the numbers of patients reporting AEs, a Fisher's exact test was used to compare treatment groups for any AE that was reported by five or more patients.
# [8] = cited from earlier work
smiles,measurement,setting,value
"CC(C)Cc1ccc(C(C)C(=O)O)cc1 (stereo not drawn) [Ibuprofen, 2-(4-isobutylphenyl) propionic acid]",Time to GI motility,"[1]; 400 mg, EEP",20.2+1.30 hours
same,Time to GI motility,"[1]; 400 mg, ITT",20.1+1.28 hours
same,Time to GI motility,"[1]; 800 mg, EEP",21.2+1.63 hours
same,Time to GI motility,"[1]; 800 mg, ITT",21.6+1.50 hours
same,time to liquid intake vs placebo,"[1]; ibuprofen treated group, ITT",not found to be statistically significant
same,time to solid intake vs placebo,"[1]; ibuprofen treated group, ITT",not found to be statistically significant
same,Time to ambulation vs placebo,"[1]; ibuprofen treated groups, ITT",found not to be statistically significant faster
same,Length of hospital stay vs placebo,"[1]; treated groups, ITT",not found to be statistically significant
same,"safety (renal function, gastrointestinal bleeding, transfusion requirements, other SAEs)","[2]; in vivo, iv",safe
same,"effect on fever, pulse rate and lactic acidosis","[2]; patients with sepsis, intravenous",reduced fever and pulse rate and lessened lactic acidosis
same,VAS Score measured with Movement (median),"[3]; EEP, 1-Hour",9.0
same,"VAS Score measured with Movement, % Reduction vs Placebo","[3]; EEP, 1-Hour",−12.5%
same,VAS Score measured with Movement (median),"[3]; EEP, 3-Hour",7.0
same,"VAS Score measured with Movement, % Reduction vs Placebo","[3]; EEP, 3-Hour",0.0%
same,VAS Score measured with Movement (median),"[3]; EEP, 6-Hour",6.0
same,"VAS Score measured with Movement, % Reduction vs Placebo","[3]; EEP, 6-Hour",0.0%
same,VAS Score measured with Movement (median),"[3]; EEP, 9-Hour",5.0
same,"VAS Score measured with Movement, % Reduction vs Placebo","[3]; EEP, 9-Hour",0.0%
same,VAS Score measured with Movement (median),"[3]; EEP, 12-Hour",4.0
same,"VAS Score measured with Movement, % Reduction vs Placebo","[3]; EEP, 12-Hour",20.0%
same,VAS Score measured with Movement (median),"[3]; EEP, 15-Hour",3.0
same,VAS Score measured with Movement (median),"[3]; EEP, 18-Hour",3.0
same,"VAS Score measured with Movement, % Reduction vs Placebo","[3]; EEP, 18-Hour",25.0%
same,VAS Score measured with Movement (median),"[3]; EEP, 21-Hour",3.0
same,"VAS Score measured with Movement, % Reduction vs Placebo","[3]; EEP, 21-Hour",25.0%
same,VAS Score measured with Movement (median),"[3]; EEP, 24-Hour",3.0
same,"VAS Score measured with Movement, % Reduction vs Placebo","[3]; EEP, 24-Hour",40.0%
same,VAS Score measured with Movement (median),"[3]; ITT, 1-Hour",9.0
same,"VAS Score measured with Movement, % Reduction vs Placebo","[3]; ITT, 1-Hour",−12.5%
same,VAS Score measured with Movement (median),"[3]; ITT, 3-Hour",7.0
same,"VAS Score measured with Movement, % Reduction vs Placebo","[3]; ITT, 3-Hour",0.0%
same,VAS Score measured with Movement (median),"[3]; ITT, 6-Hour",6.0
same,"VAS Score measured with Movement, % Reduction vs Placebo","[3]; ITT, 6-Hour",0.0%
same,VAS Score measured with Movement (median),"[3]; ITT, 9-Hour",5.0
same,"VAS Score measured with Movement, % Reduction vs Placebo","[3]; ITT, 9-Hour",3.8%
same,VAS Score measured with Movement (median),"[3]; ITT, 12-Hour",4.3
same,"VAS Score measured with Movement, % Reduction vs Placebo","[3]; ITT, 12-Hour",10.4%
same,VAS Score measured with Movement (median),"[3]; ITT, 15-Hour",3.4
same,"VAS Score measured with Movement, % Reduction vs Placebo","[3]; ITT, 15-Hour",22.7%
same,VAS Score measured with Movement (median),"[3]; ITT, 18-Hour",3.0
same,VAS Score measured with Movement (median),"[3]; ITT, 21-Hour",3.0
same,"VAS Score measured with Movement, % Reduction vs Placebo","[3]; ITT, 21-Hour",34.8%
same,VAS Score measured with Movement (median),"[3]; ITT, 24-Hour",3.6
same,"VAS Score measured with Movement, % Reduction vs Placebo","[3]; ITT, 24-Hour",20.0%
same,treated patients with reduced fever,[4]; at 4 hours,100%
same,placebo-treated vs IV Ibuprofen treated patients with uncontrolled fever,[4]; at 24 hours,~4 times
same,reduction in temperature,"[4]; critically ill patients, 48-hour study period",Significant reduction in temperature was maintained
same,acetaminophen requirement and fever control vs acetaminophen alone,"[4]; critically ill patients, subset analysis",required less acetaminophen and had better fever control
same,Rapid fever reduction seen as fast as,[4]; malaria patients,30 min
same,patients with significant fever reduction,"[4]; phase 3 clinical trial, within 4 hours, vs 32% with placebo",77%
same,"Morphine Requirement, LS Means Difference (95% CI)",[5]; AT,"−16.6 (−24.7, −8.4)"
same,"Morphine Requirement, LS Means Difference (95% CI)",[5]; EEP,"−18.1 (−27.2, −9.0)"
same,"Morphine Requirement, LS Means Difference (95% CI)",[5]; ITT,"−16.4 (−24.6, −8.1)"
same,decrease in the mean morphine used in the postoperative period,[5]; AT,30.9%
same,"Morphine Requirement, LS Means (SE)",[5]; AT,44.3 (5.7)
same,"Morphine Requirement, Mean (SD)",[5]; AT,41.1 (27.3)
same,"Morphine Requirement, Median",[5]; AT,38.0
same,"Morphine Requirement, LS Means (SE)",[5]; EEP,43.7 (5.9)
same,"Morphine Requirement, Mean (SD)",[5]; EEP,43.7 (26.9)
same,"Morphine Requirement, Median",[5]; EEP,40.5
same,decrease in the mean morphine used in the postoperative period,[5]; EPP,33.3%
same,decrease in the mean morphine used in the postoperative period,[5]; ITT,30.3%
same,"Morphine Requirement, LS Means (SE)",[5]; ITT,45.2 (5.8)
same,"Morphine Requirement, Mean (SD)",[5]; ITT,41.9 (26.9)
same,"Morphine Requirement, Median",[5]; ITT,38.0
same,"treatment failures, number of patients",[6],7
same,"treatment failures, percent of patients",[6],4%
same,deaths,[7]; 800 mg,no deaths reported
same,incidence of serious adverse events vs placebo,[7]; 800 mg,no statistically significant difference
same,patients that experienced dyspepsia (treatment-emergent adverse events),[7]; 800 mg vs placebo,significantly more patients in the placebo group
same,patients that experienced vomiting (treatment-emergent adverse events),[7]; 800 mg vs placebo,significantly more patients in the intravenous ibuprofen group
same,solubility in water,[8],very poorly soluble in water
